Laboratory results as given in patent publication US20240190872A1, “FABI INHIBITORS FOR GRAM-NEGATIVE PATHOGENS” (THE BOARD OF TRUSTEES OF THE UNIVERSITY OF ILLINOIS, priority 2021, published 2024).
In brackets after ≈: the same amount, converted by molar mass.

Experiments:
[1] = Plasma stability
[2] = Pharmacokinetic study in neutropenic infected mice
[3] = tested on: S. aureus USA300 LAC; test: Neutropenic mouse thigh infection; type: in vivo, CD-1 mice; conditions: 5 mg/kg, r.o.
Protocol: FIG. 7. […] A) Neutropenic mouse thigh infection model initiated in female BALB/c mice with A. baumannii AR-88 (1.36×10^5 CFU per mouse intramuscular, left thigh) were treated with vehicle (5 mice) or fabimycin (10 mice) four times a day (75 mg/kg intravenously) and bacterial burden evaluated at 26 h post-infection. B) Neutropenic mouse thigh infection initiated in CD-1 mice with S. aureus USA300 LAC (2.3×10^6 CFU per mouse intramuscular in thigh) were treated with vehicle (8 mice) or FabI inhibitor (8 mice per group) 2 and 7 h post-infection (5 mg/kg retro-orbital IV), […]
With formulation, MTD, and pharmacokinetic data in hand, the efficacy of fabimycin was evaluated in murine infection models. To start, a comparative assessment was made of fabimycin and Debio-1452-NH3 in two murine neutropenic infection models using a dosing regimen that is at the MTD for Debio-1452-NH3 but below the MTD for fabimycin (three doses, intramuscular, at 50 mg/kg).
Chart 1. Summary of Fabimycin in vivo models.

[4] = tested on: E. coli AR 0048; test: microbe, parasite or virus in culture; type: cell-based; conditions: Escherichia coli, AR0048, read-out: MIC E. coli AR 0048, clinical isolate
How it was run: (§1)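 CLSI broth micro-dilution in cation-adjusted Mueller-Hinton broth.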

[5] = tested on: A. baumannii AR 0033; test: microbe, parasite or virus in culture; type: cell-based; conditions: Acinetobacter baumannii, AR0033, read-out: MIC A. baumannii AR 0033, clinical isolate
How it was run: as §1

[6] = tested on: K. pneumoniae AR 0560; test: microbe, parasite or virus in culture; type: cell-based; conditions: Klebsiella pneumoniae, AR0560, read-out: MIC K. pneumoniae AR 0560, clinical isolate
How it was run: as §1

[7] = tested on: E. coli AR 0085; test: microbe, parasite or virus in culture; type: cell-based; conditions: Escherichia coli, AR0085, read-out: MIC E. coli AR 0085, clinical isolate
How it was run: as §1

[8] = tested on: K. pneumoniae AR 0066; test: microbe, parasite or virus in culture; type: cell-based; conditions: Klebsiella pneumoniae, AR0066, read-out: MIC K. pneumoniae AR 0066, clinical isolate
How it was run: as §1

[9] = tested on: A. baumannii AR 0273; test: microbe, parasite or virus in culture; type: cell-based; conditions: Acinetobacter baumannii, AR0273, read-out: MIC A. baumannii AR 0273, clinical isolate
How it was run: as §1

[10] = tested on: A. baumannii AR 0313; test: microbe, parasite or virus in culture; type: cell-based; conditions: Acinetobacter baumannii, AR0313, read-out: MIC A. baumannii AR 0313, clinical isolate
How it was run: as §1

[11] = tested on: A. baumannii AR 0299; test: microbe, parasite or virus in culture; type: cell-based; conditions: Acinetobacter baumannii, AR0299, read-out: MIC A. baumannii AR 0299, clinical isolate
How it was run: as §1

[12] = tested on: K. pneumoniae AR 0113; test: microbe, parasite or virus in culture; type: cell-based; conditions: Klebsiella pneumoniae, AR0113, read-out: MIC K. pneumoniae AR 0113, clinical isolate
How it was run: as §1

[13] = target: CYP 2D6 (Homo sapiens (Human), UniProt P10635); test: biochemical
[14] = female, BALB/c, mouse, in vivo, 100 mg/kg
[15] = Hepatocyte stability; type: in vitro ADME
[16] = tested on: E. coli ΔtolC (JW5503); type: cell-based; conditions: efflux deficient E. coli ΔtolC
How it was run: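 MICs by CLSI broth microdilution in cation-adjusted Mueller-Hinton broth, performed in biological triplicate. Strains: efflux-deficient E. coli ΔtolC (JW5503, KEIO collection) and K. pneumoniae BAA-2472 (ATCC).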

Chain of CYP 2D6 (P10635 whole entry): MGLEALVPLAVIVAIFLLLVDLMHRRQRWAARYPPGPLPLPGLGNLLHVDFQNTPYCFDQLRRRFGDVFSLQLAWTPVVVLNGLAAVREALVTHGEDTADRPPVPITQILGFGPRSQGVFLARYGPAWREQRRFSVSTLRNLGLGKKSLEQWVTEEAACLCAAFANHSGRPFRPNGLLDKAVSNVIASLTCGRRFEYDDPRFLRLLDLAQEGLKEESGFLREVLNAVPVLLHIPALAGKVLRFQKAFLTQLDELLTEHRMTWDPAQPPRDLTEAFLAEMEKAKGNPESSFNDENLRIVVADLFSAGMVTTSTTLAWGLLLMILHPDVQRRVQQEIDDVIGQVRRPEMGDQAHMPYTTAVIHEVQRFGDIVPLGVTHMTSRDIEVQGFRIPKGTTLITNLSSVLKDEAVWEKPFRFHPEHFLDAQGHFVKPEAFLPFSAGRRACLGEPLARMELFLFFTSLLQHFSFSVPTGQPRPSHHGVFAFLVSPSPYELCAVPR

**Q.** For `Cc1c(CN(C)C(=O)/C=C/c2cnc3c(c2)CC[C@H](N)C(=O)N3)oc2ccccc12` [(S)-11, (S,E)-3-(7-amino-8-oxo-6,7,8,9-tetrahydro-5H-pyrido[2,3-b]azepin-3-yl)-N-methyl-N-((3-methylbenzofuran-2-yl)methyl)acrylamide], which “stability in mouse plasma (in words)” value [1] is on record?
**A.** considerable instability

**Q.** What about the AUClast ([2]; PLASMA, 75 mg/kg IV) of the same compound?
**A.** 45400 ng·h/mL

**Q.** What about the CL ([2]; PLASMA, 75 mg/kg IV) of the same compound?
**A.** 26.9 mL/min/kg

**Q.** And the Cmax ([2]; PLASMA, 75 mg/kg IV)?
**A.** 34600 ng/mL

**Q.** What about the AUClast ([2]; PLASMA, 100 mg/kg IV) of the same compound?
**A.** 69800 ng·h/mL

**Q.** And the CL ([2]; PLASMA, 100 mg/kg IV)?
**A.** 23.5 mL/min/kg

**Q.** What about the Cmax ([2]; PLASMA, 100 mg/kg IV) of the same compound?
**A.** 47300 ng/mL

**Q.** What about the AUClast ([2]; THIGH, 75 mg/kg IV) of the same compound?
**A.** 65200 ng·h/mL

**Q.** What about the CL ([2]; THIGH, 75 mg/kg IV) of the same compound?
**A.** 18.9 mL/min/kg

**Q.** What about the Cmax ([2]; THIGH, 75 mg/kg IV) of the same compound?
**A.** 33.0 µg/g

**Q.** What about the AUClast ([2]; THIGH, 100 mg/kg IV) of the same compound?
**A.** 112000 ng·h/mL

**Q.** What about the CL ([2]; THIGH, 100 mg/kg IV) of the same compound?
**A.** 14.7 mL/min/kg

**Q.** What about the Cmax ([2]; THIGH, 100 mg/kg IV) of the same compound?
**A.** 60.2 µg/g

**Q.** And the “log reduction relative to the vehicle” value [3]?
**A.** 2.6 log

**Q.** What about the MIC [4] of the same compound?
**A.** 2 µg/mL (≈ 4.94 µM)

**Q.** And the MIC [5]?
**A.** 8 µg/mL (≈ 19.8 µM)

**Q.** What about the MIC [6] of the same compound?
**A.** 4 µg/mL (≈ 9.89 µM)

**Q.** And the MIC [7]?
**A.** 1 µg/mL (≈ 2.47 µM)

**Q.** What about the MIC [8] of the same compound?
**A.** 4 µg/mL (≈ 9.89 µM)

**Q.** What about the MIC [9] of the same compound?
**A.** 4 µg/mL (≈ 9.89 µM)

**Q.** What about the MIC [10] of the same compound?
**A.** 4 µg/mL (≈ 9.89 µM)

**Q.** What about the MIC [11] of the same compound?
**A.** 2 µg/mL (≈ 4.94 µM)

**Q.** What about the MIC [12] of the same compound?
**A.** 4 µg/mL (≈ 9.89 µM)

**Q.** And the IC50 [13]?
**A.** 65 µM

**Q.** What about the “time concentrations stayed above the MIC for the infectious strain” value [14] of the same compound?
**A.** over 7 hours

**Q.** And the “Hepatocyte stability, Mouse” value [15]?
**A.** 6.1 μL/min/million cells

**Q.** What about the “MIC E. coli ΔtolC” value [16] of the same compound?
**A.** 0.016 µg/mL (≈ 0.0396 µM)

**Q.** What about the “Plasma stability, t1/2, Mouse” value of the same compound?
**A.** 1.38 h
